Experimental data published in PubChem BioAssay (NCI).
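Compound exposure: 48 hours, 5 concentrations, 96-well plates. GI50 is the concentration that inhibits growth by half. TGI denotes the concentration required for complete inhibition of growth.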

Assays:
Assay in all cases: inhibition of tumour cell growth, NCI panel, 48 h
[1] = test system: NCI/ADR-RES ovarian
[2] = test system: NCI-H226 lung
[3] = test system: HOP-92 NSCLC
[4] = test system: SK-OV-3 ovarian
[5] = test system: NCI-H460 lung
[6] = test system: 786-0 renal
[7] = test system: RPMI-8226 leukemia
[8] = test system: SK-MEL-5 melanoma
[9] = test system: PC-3 prostate
[10] = test system: M14 melanoma
[11] = test system: SR leukemia
[12] = test system: HT29 colon
[13] = test system: MOLT-4 leukemia
[14] = test system: SK-MEL-28 melanoma
[15] = test system: SK-MEL-2 melanoma
[16] = test system: EKVX NSCLC
[17] = test system: BT-549 breast
[18] = test system: TK-10 renal
[19] = test system: CCRF-CEM leukemia
[20] = test system: MDA-MB-231 breast
[21] = test system: RXF 393 renal
[22] = test system: SNB-75 CNS
[23] = test system: HL-60(TB) leukemia
[24] = test system: SNB-19 CNS
[25] = test system: MDA-MB-435
[26] = test system: OVCAR-8 ovarian
[27] = test system: HCT-116 colon
[28] = test system: HOP-62 NSCLC
[29] = test system: UACC-62 melanoma
[30] = test system: UO-31 renal
[31] = test system: NCI-H23 lung
[32] = test system: K-562 leukemia
[33] = test system: COLO 205 colon
[34] = test system: LOX IMVI melanoma
[35] = test system: T-47D breast
[36] = test system: OVCAR-4 ovarian
[37] = test system: IGROV1 ovarian
[38] = test system: U251 CNS
[39] = test system: SF-268 CNS
[40] = test system: DU-145 prostate
[41] = test system: A498 renal
[42] = test system: KM12 colon
[43] = test system: MCF7 breast
[44] = test system: HS 578T breast
[45] = test system: SF-295 CNS
[46] = test system: SW-620 colon
[47] = test system: SF-539 CNS
[48] = test system: HCT-15 colon
[49] = test system: UACC-257 melanoma
[50] = test system: HCC-2998 colon
[51] = test system: ACHN renal
[52] = test system: CAKI-1 renal
[53] = test system: OVCAR-3 ovarian
[54] = test system: A549 NSCLC
[55] = test system: OVCAR-5 ovarian
[56] = test system: SN12C renal

Cc1cccc(NC(=S)Nc2ccc(Cl)cc2)n1
TGI [1]: > 100 µM
TGI [2]: > 100 µM
TGI [3]: > 100 µM
TGI [4]: > 100 µM
TGI [5]: > 100 µM
TGI [6]: > 100 µM
TGI [7]: > 100 µM
TGI [8]: > 100 µM
TGI [9]: > 100 µM
TGI [10]: > 100 µM
TGI [11]: > 100 µM
TGI [12]: > 100 µM
TGI [13]: > 100 µM
TGI [14]: > 100 µM
TGI [15]: > 100 µM
TGI [16]: > 100 µM
TGI [17]: > 100 µM
TGI [18]: > 100 µM
TGI [19]: > 100 µM
TGI [20]: > 100 µM
TGI [21]: > 100 µM
TGI [22]: > 100 µM
TGI [23]: > 100 µM
TGI [24]: > 100 µM
TGI [25]: > 100 µM
TGI [26]: > 100 µM
TGI [27]: > 100 µM
TGI [28]: > 100 µM
TGI [29]: > 100 µM
TGI [30]: > 100 µM
TGI [31]: > 100 µM
TGI [32]: > 100 µM
TGI [33]: > 100 µM
TGI [34]: > 100 µM
TGI [35]: > 100 µM
TGI [36]: > 100 µM
TGI [37]: > 100 µM
TGI [38]: > 100 µM
TGI [39]: > 100 µM
TGI [40]: > 100 µM
TGI [41]: > 100 µM
TGI [42]: > 100 µM
TGI [43]: > 100 µM
TGI [44]: > 100 µM
TGI [45]: > 100 µM
TGI [46]: > 100 µM
TGI [47]: > 100 µM
TGI [48]: > 100 µM
TGI [49]: > 100 µM
TGI [50]: > 100 µM
TGI [51]: > 100 µM
TGI [52]: > 100 µM

CC(=O)OCC1OC(OC2CCCC[Si](c3ccccc3)(c3ccccc3)O2)C(OC(C)=O)C(OC(C)=O)C1OC(C)=O (configuration not stated)
GI50 [1]: > 100 µM
TGI [1]: > 100 µM
GI50 [3]: > 100 µM
TGI [3]: > 100 µM
GI50 [4]: > 100 µM
TGI [4]: > 100 µM
GI50 [5]: > 100 µM
TGI [5]: > 100 µM
GI50 [6]: > 100 µM
TGI [6]: > 100 µM
GI50 [7]: 32.6 µM
TGI [7]: > 100 µM
GI50 [53]: 13.3 µM
TGI [53]: 69.5 µM
GI50 [8]: > 100 µM
TGI [8]: > 100 µM
GI50 [54]: > 100 µM
TGI [54]: > 100 µM
GI50 [9]: > 100 µM
TGI [9]: > 100 µM
GI50 [10]: > 100 µM
TGI [10]: > 100 µM
GI50 [11]: 73.6 µM
TGI [11]: > 100 µM
GI50 [12]: > 100 µM
TGI [12]: > 100 µM
GI50 [13]: 10.3 µM
TGI [13]: > 100 µM
GI50 [14]: > 100 µM
TGI [14]: > 100 µM
GI50 [16]: > 100 µM
TGI [16]: > 100 µM
GI50 [17]: > 100 µM
TGI [17]: > 100 µM
GI50 [18]: > 100 µM
TGI [18]: > 100 µM
GI50 [19]: 35.5 µM
TGI [19]: > 100 µM
GI50 [20]: > 100 µM
TGI [20]: > 100 µM
GI50 [21]: > 100 µM
TGI [21]: > 100 µM
GI50 [24]: > 100 µM
TGI [24]: > 100 µM
GI50 [25]: 51 µM
TGI [25]: > 100 µM
GI50 [26]: > 100 µM
TGI [26]: > 100 µM
GI50 [27]: 24.5 µM
TGI [27]: 59.2 µM
GI50 [28]: > 100 µM
TGI [28]: > 100 µM
GI50 [29]: > 100 µM
TGI [29]: > 100 µM
GI50 [31]: > 100 µM
TGI [31]: > 100 µM
GI50 [32]: 56.1 µM
TGI [32]: > 100 µM
GI50 [33]: > 100 µM
TGI [33]: > 100 µM
GI50 [34]: 53.6 µM
TGI [34]: > 100 µM
GI50 [35]: > 100 µM
TGI [35]: > 100 µM
GI50 [36]: > 100 µM
TGI [36]: > 100 µM
GI50 [55]: > 100 µM
TGI [55]: > 100 µM
GI50 [38]: > 100 µM
TGI [38]: > 100 µM
GI50 [39]: > 100 µM
TGI [39]: > 100 µM
GI50 [40]: > 100 µM
TGI [40]: > 100 µM
GI50 [41]: > 100 µM
TGI [41]: > 100 µM
GI50 [42]: > 100 µM
TGI [42]: > 100 µM
GI50 [43]: 69.2 µM
TGI [43]: > 100 µM
GI50 [44]: > 100 µM
TGI [44]: > 100 µM
GI50 [45]: > 100 µM
TGI [45]: > 100 µM
GI50 [46]: 53 µM
TGI [46]: > 100 µM
GI50 [56]: > 100 µM
TGI [56]: > 100 µM
GI50 [47]: 29.2 µM
TGI [47]: 79.1 µM
GI50 [48]: > 100 µM
TGI [48]: > 100 µM
GI50 [49]: > 100 µM
TGI [49]: > 100 µM
GI50 [50]: > 100 µM
TGI [50]: > 100 µM
GI50 [51]: > 100 µM
TGI [51]: > 100 µM
GI50 [52]: 38.9 µM
TGI [52]: > 100 µM
